# Data as given in patent publication US20160075653A1, “NEMATICIDAL N-(PHENYLCYCLOALKYL)CARBOXAMIDES AND N-(PHENYLCYCLOALKYL)THIOCARBOXAMIDES” (BAYER CROPSCIENCE AKTIENGESELLSCHAFT, priority 2013, published 2016).
# Assay: Measurement of log P values by HPLC on reversed phase columns (methods [a] pH 2.3, [b] pH 2.7, [c] pH 7.8)
# Assay type: physicochemical
# In short: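 Determined per EEC Directive 79/831 Annex V.A8 by reversed-phase HPLC, 10-95% acetonitrile gradient: [a] pH 2.3, 0.1% phosphoric acid; [b] LC-MS, pH 2.7, 0.1% formic acid; [c] LC-MS, pH 7.8, 0.001 molar ammonium hydrogen carbonate. Calibrated with C3-C16 alkan-2-ones by retention-time interpolation.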
# [1] = HPLC on reversed phase columns, method [b], pH 2.7
# [2] = method [b], HPLC reversed phase, pH 2.7
Compound,logP [1],logP [2],other results
Cn1cc(C(=O)NC2CC2c2ccccc2)c(C(F)(F)F)n1 (centres unmarked) [Example 4],2.34^[b],,
Cc1nn(C)c(F)c1C(=O)NC1CC1c1ccccc1 (centres unmarked) [Example 5],2.00^[b],,
Cc1nn(C)cc1C(=O)NC1CC1c1ccccc1 (centres unmarked) [Example 6],1.70^[b],,
Cc1nc(C(F)(F)F)c(C(=O)NC2CC2c2ccccc2)s1 (centres unmarked) [Example 8],2.66^[b],,
Cc1nn(C)c(Cl)c1C(=O)NC1CC1c1ccccc1 (centres unmarked) [Example 9],2.12^[b],,
Cc1nn(C)c(F)c1C(=O)NC1CC1c1ccc(Cl)cc1 (centres unmarked) [Example 12],3.04^[b],,
Cc1nn(C)c(C)c1C(=O)NC1CC1c1ccc(Cl)cc1 (centres unmarked) [Example 13],2.89^[b],,
Cc1nn(C)c(Cl)c1C(=O)NC1CC1c1ccc(Cl)cc1 (centres unmarked) [Example 14],2.22^[b],,
Cc1nn(C)c(C)c1C(=O)NC1CC1c1ccc(F)cc1 (centres unmarked) [Example 15],2.84^[b],,
Cc1nn(C)cc1C(=O)NC1CC1c1ccc(F)cc1 (centres unmarked) [Example 16],2.13^[b],,
Cc1nn(C)c(F)c1C(=O)NC1CC1c1ccc(F)cc1 (centres unmarked) [Example 18],3.01^[b],,
Cc1nn(C)cc1C(=O)NC1CC1c1ccc(Cl)cc1 (centres unmarked) [Example 19],2.63^[b],,
Cc1nn(C)c(C)c1C(=O)NC1CC1c1ccc(Br)cc1 (centres unmarked) [Example 21],3.26^[b],,
Cc1nn(C)cc1C(=O)NC1CC1c1ccc(Br)cc1 (centres unmarked) [Example 23],3.20^[b],,
Cn1cc(C(=O)NC2CC2c2ccc(Br)cc2)c(C(F)(F)F)n1 (centres unmarked) [Example 25],3.23^[b],,
Cc1nc(C(F)(F)F)c(C(=O)NC2CC2c2ccc(F)cc2)s1 (centres unmarked) [Example 26],3.87^[b],,
Cc1nc(C(F)(F)F)c(C(=O)NC2CC2c2ccc(Cl)cc2)s1 (centres unmarked) [Example 28],4.35^[b],,
O=C(NC1CC1c1ccc(Cl)cc1)c1ccc(Cl)nc1 (centres unmarked) [Example 31],3.53^[b],,
O=C(NC1CC1c1ccc(Cl)cc1)c1cccnc1Cl (centres unmarked) [Example 34],2.43^[b],,"logP (HPLC on reversed phase columns, method [c], pH 7.8): 2.39^[c];"

Compound,logP [1],logP [2],other results
O=C(NC1CC1c1ccc(Br)cc1)c1cccnc1Cl (centres unmarked) [Example 35],2.34^[b],,
O=C(NC1CC1c1ccc(F)cc1)c1cnc(Cl)cc1Cl (centres unmarked) [Example 36],2.70^[b],,
O=C(NC1CC1c1ccccc1)c1ccncc1 (centres unmarked) [Example 39],1.30^[b],,
O=C(NC1CC1c1ccccc1)c1ccccc1C(F)(F)F (centres unmarked) [Example 40],2.79^[b],,
O=C(NC1CC1c1ccccc1Cl)c1ccccc1Br (centres unmarked) [Example 48],3.19^[b],,
N#Cc1ccccc1C(=O)NC1CCCC1c1ccc(F)c(F)c1 (centres unmarked) [Example 137],,2.96^[b],
Cn1cc(C(=O)N(C2CC2)C2CCCCC2c2ccccc2)c(C(F)F)n1 (centres unmarked) [Example 138],,3.60^[b],
Cc1nn(C)c(F)c1C(=O)N(C1CC1)C1CCCCC1c1ccccc1 (centres unmarked) [Example 139],,3.53^[b],
Cn1cc(C(=O)N(C2CC2)C2CCCCC2c2ccccc2)c(C(F)(F)F)c1 (centres unmarked) [Example 140],,3.90^[b],
Cc1nc(C(F)F)c(C(=O)N(C2CC2)C2CCCCC2c2ccccc2)s1 (centres unmarked) [Example 141],,4.18^[b],
Cn1cc(C(=O)N(C2CC2)C2CCCCC2c2ccccc2)c(C(F)(F)F)n1 (centres unmarked) [Example 142],,3.96^[b],
Cn1cc(C(=O)N(C2CC2)C2CCCCC2c2ccccc2)c(C(F)F)n1 (centres unmarked) [Example 143],,3.55^[b],
CCc1nn(C)c(F)c1C(=O)N(C1CC1)C1CCCCC1c1ccccc1 (centres unmarked) [Example 144],,3.83^[b],
Cn1cc(C(=O)N(C2CC2)C2CCCCC2c2ccccc2)c(I)n1 (centres unmarked) [Example 145],,3.60^[b],
Cc1nn(C)c(C)c1C(=O)N(C1CC1)C1CCCCC1c1ccccc1 (centres unmarked) [Example 146],,3.13^[b],
Cc1nc(C(F)(F)F)c(C(=O)N(C2CC2)C2CCCCC2c2ccccc2)s1 (centres unmarked) [Example 147],,4.69^[b],
FC(F)(F)c1ccccc1C(=S)NC1CC1c1ccccc1 (centres unmarked) [Example 148],,3.69^[b],
Fc1ccc(C2CCCC2NC(=S)c2sccc2C(F)(F)F)cc1F (centres unmarked) [Example 149],,4.59^[b],
